Measured values reported in patent US9181273B2, “Morpholine-spirocyclic piperidine amides as modulators of ion channels” (Vertex Pharmaceuticals Incorporated, priority 2011, dated 2015).

Molecular target: human NaV subtype, like NaV 1.7 (Homo sapiens, UniProt Q15858)
Test: E-VIPR optical membrane potential assay with electrical stimulation
Format: cell-based
Conditions: not given

human NaV subtype, like NaV 1.7, sequence (Q15858 whole entry): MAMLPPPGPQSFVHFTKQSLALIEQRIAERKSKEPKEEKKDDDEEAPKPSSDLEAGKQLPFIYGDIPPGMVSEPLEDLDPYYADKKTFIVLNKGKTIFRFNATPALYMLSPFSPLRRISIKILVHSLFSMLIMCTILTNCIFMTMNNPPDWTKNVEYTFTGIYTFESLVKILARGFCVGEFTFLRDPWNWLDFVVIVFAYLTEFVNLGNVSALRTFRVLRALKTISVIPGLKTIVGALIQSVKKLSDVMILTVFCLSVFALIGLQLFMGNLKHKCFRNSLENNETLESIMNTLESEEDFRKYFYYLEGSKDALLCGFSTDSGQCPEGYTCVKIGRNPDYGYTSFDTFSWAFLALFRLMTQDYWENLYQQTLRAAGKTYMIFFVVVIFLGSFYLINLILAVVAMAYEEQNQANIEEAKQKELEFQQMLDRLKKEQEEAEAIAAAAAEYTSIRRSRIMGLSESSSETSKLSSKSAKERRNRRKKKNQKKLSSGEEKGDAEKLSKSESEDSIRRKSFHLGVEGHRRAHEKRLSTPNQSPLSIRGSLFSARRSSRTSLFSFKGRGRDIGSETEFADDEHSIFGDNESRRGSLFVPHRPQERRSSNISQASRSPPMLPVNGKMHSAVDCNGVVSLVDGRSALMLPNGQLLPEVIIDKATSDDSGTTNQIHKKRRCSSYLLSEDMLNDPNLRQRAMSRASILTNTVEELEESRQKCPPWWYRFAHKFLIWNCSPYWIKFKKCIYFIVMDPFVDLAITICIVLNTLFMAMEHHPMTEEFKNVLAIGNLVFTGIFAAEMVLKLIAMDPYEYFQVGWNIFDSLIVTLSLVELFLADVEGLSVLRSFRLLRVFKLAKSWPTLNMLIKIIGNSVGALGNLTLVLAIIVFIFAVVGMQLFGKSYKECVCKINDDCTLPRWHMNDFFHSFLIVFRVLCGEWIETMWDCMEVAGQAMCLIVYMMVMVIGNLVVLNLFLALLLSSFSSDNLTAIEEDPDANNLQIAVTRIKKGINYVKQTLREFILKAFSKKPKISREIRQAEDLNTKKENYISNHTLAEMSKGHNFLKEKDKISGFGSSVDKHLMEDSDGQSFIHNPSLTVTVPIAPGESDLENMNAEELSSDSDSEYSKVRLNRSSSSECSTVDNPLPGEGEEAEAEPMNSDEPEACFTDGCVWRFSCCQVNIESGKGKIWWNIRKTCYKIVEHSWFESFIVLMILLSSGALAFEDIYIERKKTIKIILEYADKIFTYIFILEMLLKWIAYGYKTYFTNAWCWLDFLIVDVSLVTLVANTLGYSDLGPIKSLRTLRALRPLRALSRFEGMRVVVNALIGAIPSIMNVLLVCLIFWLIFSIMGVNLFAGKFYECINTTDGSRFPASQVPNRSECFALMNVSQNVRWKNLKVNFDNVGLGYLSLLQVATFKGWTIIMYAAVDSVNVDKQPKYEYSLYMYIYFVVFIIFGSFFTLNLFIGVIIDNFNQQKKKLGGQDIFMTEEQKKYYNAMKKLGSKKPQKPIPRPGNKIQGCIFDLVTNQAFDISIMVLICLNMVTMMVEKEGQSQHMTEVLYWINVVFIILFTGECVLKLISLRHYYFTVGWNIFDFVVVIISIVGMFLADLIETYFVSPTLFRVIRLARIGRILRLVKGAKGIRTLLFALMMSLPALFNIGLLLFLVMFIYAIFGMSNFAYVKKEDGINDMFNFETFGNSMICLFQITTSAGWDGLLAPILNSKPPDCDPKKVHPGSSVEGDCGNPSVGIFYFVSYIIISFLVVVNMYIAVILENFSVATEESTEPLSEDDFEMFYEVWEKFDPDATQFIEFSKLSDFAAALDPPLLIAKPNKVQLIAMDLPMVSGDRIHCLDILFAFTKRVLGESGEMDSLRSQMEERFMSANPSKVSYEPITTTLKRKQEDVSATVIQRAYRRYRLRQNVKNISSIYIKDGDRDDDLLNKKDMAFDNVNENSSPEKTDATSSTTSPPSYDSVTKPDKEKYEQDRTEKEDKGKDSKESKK

Row | Structure (SMILES) | IC50 [nM]
1 | COc1cc(C(=O)N2CCC3(CC2)CN(CC(F)F)CC(c2ccccn2)O3)ccc1OC(C)C (stereo not shown) [Compound 3] | < 2000

Same assay, conditions: active against one or more sodium channels; assay and NaV subtype not specified for Table 3; read-out: IC50 Binned Activity Data

Row | Structure (SMILES) | IC50 [nM]
2 | COCC1CN(Cc2c(F)cccc2F)CC2(CCN(C(=O)c3ccc(OC(C)C)c(C)c3)CC2)O1 (stereo not shown) [Compound 66] | < 2000
3 | CCC1CN(c2ncccn2)CC2(CCN(C(=O)c3ccc(C4(O)CCCC4)c(F)c3)CC2)O1 (stereo not shown) [Compound 271] | < 2000
4 | Cc1cc(C(=O)N2CCC3(CC2)CN(CC(F)F)CC(c2ccnn2C)O3)ccc1OC(C)C (stereo not shown) [Compound 11] | < 2000
5 | COCC1CN(c2ccc(C)cn2)CC2(CCN(C(=O)c3ccc(OC(C)C)c(C)c3)CC2)O1 (stereo not shown) [Compound 75] | < 2000
6 | CCN1CC(c2ncc(C)s2)OC2(CCN(C(=O)c3ccc(OC(C)C)c(C)c3)CC2)C1 (stereo not shown) [Compound 250] | < 2000
7 | COCC1CN(CC#N)CC2(CCN(C(=O)c3ccc(OC(C)C)c(C)c3)CC2)O1 (stereo not shown) [Compound 23] | > 5000
8 | COCC1CN(Cc2cncnc2)CC2(CCN(C(=O)c3ccc(OC(C)C)c(C)c3)CC2)O1 (stereo not shown) [Compound 69] | > 5000
9 | Cc1cc(C(=O)N2CCC3(CC2)CN(C(C)C)CC(c2ccccc2)O3)ccc1OC(C)C (stereo not shown) [Compound 281] | < 2000
10 | CC(C)Oc1ccc(C(=O)N2CCC3(CC2)CN(CC(F)F)CC(c2ccccn2)O3)cc1F (stereo not shown) [Compound 221] | < 2000
11 | CC(C)(O)c1ccc(C(=O)N2CCC3(CC2)CN(CC(F)F)CC(c2ccc(F)cc2)O3)cc1F (stereo not shown) [Compound 307] | < 2000
12 | CCC1CN(CC(F)(F)F)CC2(CCN(C(=O)c3ccc(OC(C)C)c(C)c3)CC2)O1 (stereo not shown) [Compound 233] | < 2000
13 | CC(C)Oc1ccc(C(=O)N2CCC3(CC2)CN(CC(F)F)CC(c2ccc(F)cc2)O3)cc1CO (stereo not shown) [Compound 4] | 2000 to 5000
14 | CC(C)Oc1ccc(C(=O)N2CCC3(CC2)CN(CC(F)(F)F)CC(c2ccccc2)O3)cc1Cl (stereo not shown) [Compound 213] | < 2000
15 | Cc1cc(C2CN(CC(F)(F)F)CC3(CCN(C(=O)c4ccc(OC(C)C)c(F)c4)CC3)O2)n[nH]1 (stereo not shown) [Compound 87] | 2000 to 5000
16 | COCC1CN(c2ccccc2)CC2(CCN(C(=O)c3ccc(OC(C)C)c(C)c3)CC2)O1 (stereo not shown) [Compound 286] | < 2000
17 | COCC1CN(CCC(C)C)CC2(CCN(C(=O)c3ccc(OC(C)C)c(C)c3)CC2)O1 (stereo not shown) [Compound 147] | < 2000
18 | COCC1CN(c2ncccn2)CC2(CCN(C(=O)c3ccc(C(C)(C)O)cc3)CC2)O1 (stereo not shown) [Compound 161] | > 5000
19 | Cc1cc(C(=O)N2CCC3(CC2)CN(CC(F)(F)F)[C@H](C)[C@@H](c2ccccc2)O3)ccc1OC(C)C [Compound 123] | 2000 to 5000
20 | CC(C)(C)Oc1ccc(C(=O)N2CCC3(CC2)CN(CC(F)(F)F)CC(c2ccccc2)O3)nc1 (stereo not shown) [Compound 13] | < 2000
21 | COc1cc(C(=O)N2CCC3(CC2)CN(CC#N)CC(c2ccccc2)O3)ccc1C(C)(C)O (stereo not shown) [Compound 115] | 2000 to 5000
22 | CC(C)(O)c1ccc(C(=O)N2CCC3(CC2)CN(CC(F)(F)F)CC(c2ccccc2)O3)cc1F (stereo not shown) [Compound 257] | < 2000
23 | CCC1CN(c2ncccn2)CC2(CCN(C(=O)c3ccc(OC(C)C)c(C)c3)CC2)O1 (stereo not shown) [Compound 236] | < 2000
24 | Cc1cc(C(=O)N2CCC3(CC2)CN(CC(F)(F)F)CC(c2ccccc2)O3)ccc1C1COC1 (stereo not shown) [Compound 251] | < 2000
25 | COCC1CN(Cc2ccccn2)CC2(CCN(C(=O)c3ccc(OC(C)C)c(C)c3)CC2)O1 (stereo not shown) [Compound 14] | > 5000
26 | CCC(CC)N1CC(COC)OC2(CCN(C(=O)c3ccc(OC(C)C)c(C)c3)CC2)C1 (stereo not shown) [Compound 48] | < 2000

Row | Structure (SMILES) | IC50 [nM]
27 | COCC1CN(c2ncccn2)CC2(CCN(C(=O)c3ccc(C(C)(C)O)c(C)c3)CC2)O1 (stereo not shown) [Compound 267] | 2000 to 5000
28 | Cc1cc(C(=O)N2CCC3(CC2)CN(Cc2ccccc2)CC(CO)O3)ccc1OC(C)C (stereo not shown) [Compound 82] | 2000 to 5000
29 | CCN1CC(c2ccccc2)OC2(CCN(C(=O)c3ccc(OC(C)C)c(F)c3)CC2)C1 (stereo not shown) [Compound 227] | < 2000
30 | COCC1CN(c2ccccn2)CC2(CCN(C(=O)c3ccc(OC(C)C)c(C)c3)CC2)O1 (stereo not shown) [Compound 140] | < 2000
31 | COc1cc(C(=O)N2CCC3(CC2)CN(CC(F)(F)F)CC(c2ccccc2)O3)ccc1OC(C)(C)C (stereo not shown) [Compound 128] | < 2000
32 | CCC1CN(c2ccccn2)CC2(CCN(C(=O)c3ccc(C4(O)CCCC4)c(F)c3)CC2)O1 (stereo not shown) [Compound 17] | < 2000
33 | COCC1CN(c2ncccn2)CC2(CCN(C(=O)c3ccc(OC)c(C(F)(F)F)c3)CC2)O1 (stereo not shown) [Compound 284] | < 2000
34 | COCC1CN(c2ncccn2)CC2(CCN(C(=O)c3ccc(OC(C)C)cc3)CC2)O1 (stereo not shown) [Compound 136] | 2000 to 5000
35 | CC#CCN1CC(CC)OC2(CCN(C(=O)c3ccc(OC(C)C)c(C)n3)CC2)C1 (stereo not shown) [Compound 277] | 2000 to 5000
36 | CCN1CC2(CCN(C(=O)c3ccc(OC(C)C)c(C)c3)CC2)OC(c2ccccc2)C1=O (stereo not shown) [Compound 9] | 2000 to 5000
37 | Cc1cc(C(=O)N2CCC3(CC2)CN(CC(F)(F)F)CC(CCO)O3)ccc1OC(C)C (stereo not shown) [Compound 146] | 2000 to 5000
38 | Cc1cccc(C2CN(CC(F)F)CC3(CCN(C(=O)c4ccc(C(C)(C)O)c(F)c4)CC3)O2)n1 (stereo not shown) [Compound 80] | > 5000
39 | Cc1cc(C(=O)N2CCC3(CC2)CN(CC(F)F)CC(c2ccc(F)cc2)O3)ccc1OCCCO (stereo not shown) [Compound 81] | > 5000
40 | Cc1cc(C(=O)N2CCC3(CC2)CN(c2ncccn2)CC(COC(F)F)O3)ccc1OC(C)C (stereo not shown) [Compound 171] | < 2000
41 | Cc1cc(C(=O)N2CCC3(CC2)CN(CC(F)F)CC(c2ccn(C)n2)O3)ccc1OC(C)C (stereo not shown) [Compound 306] | < 2000
42 | Cc1cccc(C2CN(CC(F)F)CC3(CCN(C(=O)c4ccc(OC(C)C)c(F)c4)CC3)O2)n1 (stereo not shown) [Compound 195] | < 2000
43 | COCC1CN(c2ncccn2)CC2(CCN(C(=O)c3ccc(C4(O)CCCCC4)cc3)CC2)O1 (stereo not shown) [Compound 237] | < 2000
44 | CCN1CC(c2ccccc2)OC2(CCN(C(=O)c3ccc(S(=O)(=O)NC4CC4)cc3)CC2)C1 (stereo not shown) [Compound 167] | > 5000
45 | COCC1CN(c2ncccn2)CC2(CCN(C(=O)c3ccc(OCCC(C)C)c(OC)c3)CC2)O1 (stereo not shown) [Compound 276] | < 2000
46 | COCC1CN(c2ncccn2)CC2(CCN(C(=O)c3ccc(C4(O)CCCC4)cc3)CC2)O1 (stereo not shown) [Compound 300] | < 2000
47 | CC#CCN1CC2(CCN(C(=O)c3ccc(OC(C)C)c(C)c3)CC2)OCC1(C)C [Compound 185] | > 5000
48 | Cc1cc(C(=O)N2CCC3(CC2)CN(CC(F)F)CC(c2ccc(F)cc2)O3)ccc1OC(C)C (stereo not shown) [Compound 27] | < 2000
49 | CCn1nccc1C1CN(CC(F)F)CC2(CCN(C(=O)c3ccc(OC(C)C)c(C)c3)CC2)O1 (stereo not shown) [Compound 20] | < 2000
50 | CCOc1cccc(C(=O)N2CCC3(CC2)CN(c2ncccn2)CC(COC)O3)c1 (stereo not shown) [Compound 72] | > 5000
51 | CC(C)Oc1ccc(C(=O)N2CCC3(CC2)CN(CC(F)F)CC(c2ccnn2C)O3)cc1F (stereo not shown) [Compound 84] | > 5000

Row | Structure (SMILES) | IC50 [nM]
52 | Cc1cc(C(=O)N2CCC3(CC2)CN(CC(F)(F)F)CC(c2ccccc2)O3)ccc1S(C)(=O)=O (stereo not shown) [Compound 189] | < 2000
53 | CC#CCN1CC(CC)OC2(CCN(C(=O)c3ccc(OC)c(C)c3)CC2)C1 (stereo not shown) [Compound 141] | > 5000
54 | COCC1CN(C2CCC(C)CC2)CC2(CCN(C(=O)c3ccc(OC(C)C)c(C)c3)CC2)O1 (stereo not shown) [Compound 5] | < 2000
55 | CCC1CN(c2ncccn2)CC2(CCN(C(=O)c3ccc(C4(O)CCC4)c(C)c3)CC2)O1 (stereo not shown) [Compound 91] | < 2000
56 | Cc1nc(C(=O)N2CCC3(CC2)CN(CC(F)F)CC(c2ccccc2)O3)ccc1OC(C)C (stereo not shown) [Compound 246] | < 2000
57 | COCC1CN(c2ncccn2)CC2(CCN(C(=O)c3ccc(OC(C)C)c(F)c3)CC2)O1 (stereo not shown) [Compound 19] | < 2000
58 | Cc1cc(C(=O)N2CCC3(CC2)CN(CC(F)(F)F)CC(c2ccccc2)O3)ccc1S(=O)(=O)C(C)C (stereo not shown) [Compound 200] | < 2000
59 | COCC1CN(CC2CCOCC2)CC2(CCN(C(=O)c3ccc(OC(C)C)c(C)c3)CC2)O1 (stereo not shown) [Compound 134] | > 5000
60 | COCC#Cc1ccc(C(=O)N2CCC3(CC2)CN(CC(F)(F)F)CC(c2ccccc2)O3)cc1F (stereo not shown) [Compound 56] | 2000 to 5000
61 | COCC1CN(c2ncccc2OC)CC2(CCN(C(=O)c3ccc(OC(C)C)c(C)c3)CC2)O1 (stereo not shown) [Compound 79] | < 2000
62 | Cc1cccc(C2CN(CC(F)F)CC3(CCN(C(=O)c4ccc(OC(C)C)c(C)c4)CC3)O2)n1 (stereo not shown) [Compound 37] | < 2000
63 | Cc1cc(C(=O)N2CCC3(CC2)CN(CC(F)F)CC(c2ncc(C(C)C)o2)O3)ccc1OC(C)C (stereo not shown) [Compound 88] | < 2000
64 | COCC1CN(c2cccc(C#N)c2)CC2(CCN(C(=O)c3ccc(OC(C)C)c(C)c3)CC2)O1 (stereo not shown) [Compound 228] | < 2000
65 | COCC1CN(c2cc(OC)ccn2)CC2(CCN(C(=O)c3ccc(OC(C)C)c(C)c3)CC2)O1 (stereo not shown) [Compound 126] | < 2000
66 | Cc1cc(C(=O)N2CCC3(CC2)CN(CCO)CC(c2ccccc2)O3)ccc1OC(C)C (stereo not shown) [Compound 25] | 2000 to 5000
67 | COCC1CN(Cc2cocn2)CC2(CCN(C(=O)c3ccc(OC(C)C)c(C)c3)CC2)O1 (stereo not shown) [Compound 64] | > 5000
68 | Cc1cc(C(=O)N2CCC3(CC2)CN(CC(F)(F)F)CC(c2ccccc2)O3)ccc1OCCCO (stereo not shown) [Compound 117] | < 2000
69 | COCC1CN(Cc2cc(C)on2)CC2(CCN(C(=O)c3ccc(OC(C)C)c(C)c3)CC2)O1 (stereo not shown) [Compound 132] | 2000 to 5000
70 | CCn1ccc(C2CN(CC(F)F)CC3(CCN(C(=O)c4ccc(OC(C)C)c(C)c4)CC3)O2)n1 (stereo not shown) [Compound 229] | 2000 to 5000
71 | COCCCN1CC(COC)OC2(CCN(C(=O)c3ccc(OC(C)C)c(C)c3)CC2)C1 (stereo not shown) [Compound 175] | < 2000
72 | Cc1cc(C(=O)N2CCC3(CC2)CN(Cc2ccccc2)CC(C(C)(C)O)O3)ccc1OC(C)C (stereo not shown) [Compound 179] | > 5000
73 | CCN1CC2(CCN(C(=O)c3ccc(OC(C)C)c(OC)c3)CC2)OCC1c1ccccc1 (stereo not shown) [Compound 43] | 2000 to 5000
74 | CC(C)Oc1ccc(C(=O)N2CCC3(CC2)CN(CC(F)F)CC(c2ncc(C(C)C)o2)O3)cc1F (stereo not shown) [Compound 159] | > 5000
75 | Cc1cc(C(=O)N2CCC3(CC2)CN(CC(F)(F)F)CC(c2ccccc2)O3)ccc1OCCO (stereo not shown) [Compound 199] | 2000 to 5000
76 | COCCOc1ccc(C(=O)N2CCC3(CC2)CN(c2ncccn2)CC(COC)O3)cc1OC (stereo not shown) [Compound 125] | > 5000
